Series [1] can be described thus: Biodistribution of ^111In-labelled fragments in CD1 nu/nu mice without tumours. It is filed as in vivo, mouse. Conditions: CD1 nu/nu, mouse, iv, 100 kBq, total radioactivity. On the procedure: (§1) Biodistribution of ^111In-PSI-CLNOD1, ^111In-PSI-CLNOD2, ^111In-PSI-CLNOD3 and ^111In-Ex4NOD40 were performed in CD 1 nu/nu mice with tumour xenografts that were prepared as previously described. Six week-old female CD1 nu/nu mice were subcutaneously inoculated in both shoulder regions with 8 x 10^6 CHL-GLP-1R positive cells suspended in PBS pH 7.4. After 4 weeks, the mice were randomly divided into groups of four mice. For the ^111In-labelled fragments mice without tumours were used. The mice were injected with approximately 100 kBq (1–5 pmol) of the respective ^111In-labelled peptide diluted in PBS pH 7.4 with 0.1% BSA via the tail vein and sacrificed after 4 h by CO2 asphyxiation. […] Blood, heart, lungs, spleen, kidneys, pancreas, stomach, intestine, liver, muscle, bone and tumour were removed, weighted and activity determined in a γ-counter (Packard Cobra II Auto Gamma, Perkin Elmer, Switzerland). The percentage of injected activity per gram tissue (%iA/g) was calculated for each sample. The statistical significance was determined using the two-way ANOVA test and corrected for multiple comparisons using Tukey’s honest significance test. The data was log-transformed to account for the variance in the groups.

For series [2], the system named is CD1 nu/nu mice. The series is described as above. Format: in vivo, mouse. The note with it: ^111In-labelled fragment ~100 kBq i.v. tail vein, mice without tumours, after 4 h. On the procedure: as §1
The subject of series [3] is meprin α. The experiment in a line: recombinant meprin α in meprin assay buffer (50 mM Tris-HCl pH 7.5 + 1 mM MgCl2 + 1 mM CaCl2) and 1 M Tris pH 7.5. Conditions: 37°C, up to 60 min.
Series [4] has as its system meprin β. Nature of the series: recombinant meprin β in meprin assay buffer (50 mM Tris-HCl pH 7.5 + 1 mM MgCl2 + 1 mM CaCl2) and 1 M Tris pH 7.5. Conditions: 37°C, up to 60 min.
The mark [5] stands for this setting: in vivo, Biodistribution of fragment, Blood.
Setting [6] is: in vivo, Biodistribution of fragment, Bone.
Setting [7] is: in vivo, Biodistribution of fragment, Heart.
The mark [8] stands for this setting: in vivo, Biodistribution of fragment, Intestines.
Setting [9] is: in vivo, Biodistribution of fragment, Kidneys.
The mark [10] stands for this setting: in vivo, Biodistribution of fragment, Liver.
[11] abbreviates: in vivo, Biodistribution of fragment, Lungs.
Setting [12] is: in vivo, Biodistribution of fragment, Pancreas.
The mark [13] stands for this setting: in vivo, Biodistribution of fragment, Spleen.
Where [14] appears, read: in vivo, Biodistribution of fragment, Stomach.
The mark [15] stands for this setting: in vivo, activity retained in the kidneys at the end of the experiment.
The mark [16] stands for this setting: blood, ^111In-labelled fragment ~100 kBq i.v. tail vein, mice without tumours, after 4 h, read-out: Biodistribution of fragment, Blood.
Setting [17] is: intestines, ^111In-labelled fragment ~100 kBq i.v. tail vein, mice without tumours, after 4 h, read-out: Biodistribution of fragment, Intestines.
Setting [18] is: kidneys, ^111In-labelled fragment ~100 kBq i.v. tail vein, mice without tumours, after 4 h, read-out: Biodistribution of fragment, Kidneys.
[19] abbreviates: kidneys, ^111In-labelled fragments, mice without tumours, 4 h after injection, summary in text of S3 Table, read-out: activity retained in the kidneys at the end of the experiment.
The mark [20] stands for this setting: liver, ^111In-labelled fragment ~100 kBq i.v. tail vein, mice without tumours, after 4 h, read-out: Biodistribution of fragment, Liver.
The mark [21] stands for this setting: lungs, ^111In-labelled fragment ~100 kBq i.v. tail vein, mice without tumours, after 4 h, read-out: Biodistribution of fragment, Lungs.
Where [22] appears, read: spleen, ^111In-labelled fragment ~100 kBq i.v. tail vein, mice without tumours, after 4 h, read-out: Biodistribution of fragment, Spleen.
Where [23] appears, read: stomach, ^111In-labelled fragment ~100 kBq i.v. tail vein, mice without tumours, after 4 h, read-out: Biodistribution of fragment, Stomach.
The mark [24] stands for this setting: in vivo, Biodistribution of fragment, Muscle.

Where two headings read alike, the source gives them in different places. Where a SMILES comes first, the peptide text is derived from it. The star is where a group is joined. NODAGA = O=C(O)CN1CCN(CC(=O)O)CCN(C(CCC(=O)*)C(=O)O)CC1 A value given as a limit tells only on which side of the number the result lay.

In the case of `CC(C)[C@H](NC(=O)[C@H](C)NC(=O)[C@H](CCC(=O)O)NC(=O)[C@@H](N)CCC(=O)O)C(=O)N[C@@H](CCCCNC(=O)CCC(C(=O)O)N1CCN(CC(=O)O)CCN(CC(=O)O)CC1)C(N)=O` (stereo partly drawn) [CL1-F1] (H-EEAVK(NODAGA)-NH2), the tissue uptake at 4 h in series [1] (setting [5]) worked out at 0.01 %ID/g; in series [1] (setting [6]) it was 0.05 %ID/g; in series [1] (setting [7]), 0.01 %ID/g; in series [1] (setting [8]) it was 0.22 %ID/g; in series [1] (setting [9]), 2.28 %ID/g; in series [1] (setting [10]), 0.07 %ID/g. The tissue uptake at 4 h is 0.03 %ID/g in series [1] (setting [11]); 0.01 %ID/g in series [1] (setting [12]); 0.03 %ID/g in series [1] (setting [13]); 0.02 %ID/g in series [1] (setting [14]); under 4 %ID/g in series [1] (setting [15]).

As to `CC(C)[C@H](NC(=O)[C@H](C)NC(=O)[C@@H](N)CCC(=O)O)C(=O)N[C@@H](CCCCNC(=O)CCC(C(=O)O)N1CCN(CC(=O)O)CCN(CC(=O)O)CC1)C(N)=O` (stereo partly drawn) [CL1-F2] (H-EAVK(NODAGA)-NH2), the tissue uptake at 4 h was found to be 0.01 %ID/g in series [1] (setting [5]); 0.06 %ID/g in series [1] (setting [6]); 0.02 %ID/g in series [1] (setting [7]); 0.1 %ID/g in series [1] (setting [8]); 2.97 %ID/g in series [1] (setting [9]); 0.08 %ID/g in series [1] (setting [10]). The tissue uptake at 4 h in series [1] (setting [11]) was 0.04 %ID/g; in series [1] (setting [12]), 0.01 %ID/g; in series [1] (setting [13]) it was 0.03 %ID/g; in series [1] (setting [14]), 0.02 %ID/g; in series [1] (setting [15]) it was under 4 %ID/g.

For `NC(=O)[C@@H](N)CCCCNC(=O)CCC(C(=O)O)N1CCN(CC(=O)O)CCN(CC(=O)O)CC1` (stereo partly drawn) [CL1-F3], the tissue uptake at 4 h in series [1] (setting [6]) came out at 0.07 %ID/g; in series [1] (setting [7]), 0.01 %ID/g; in series [1] (setting [8]), 0.09 %ID/g; in series [1] (setting [9]), 1.72 %ID/g; in series [1] (setting [10]), 0.08 %ID/g; in series [1] (setting [11]), 0.03 %ID/g. Moreover, the tissue uptake at 4 h was 0.01 %ID/g in series [1] (setting [12]), 0.03 %ID/g in series [1] (setting [13]), 0.02 %ID/g in series [1] (setting [14]) and under 4 %ID/g in series [1] (setting [15]).

For the compound `CSCC[C@H](NC(=O)[C@H](Cc1ccc(O)cc1)NC(=O)[C@@H](N)CC(=O)O)C(=O)NCC(=O)N[C@@H](Cc1c[nH]c2ccccc12)C(=O)N[C@@H](CCSC)C(=O)N[C@@H](CC(=O)O)C(=O)N[C@@H](Cc1ccccc1)C(=O)N[C@@H](CCCCNC(=O)CCC(C(=O)O)N1CCN(CC(=O)O)CCN(CC(=O)O)CC1)C(N)=O` (stereo partly drawn) [CL2-F1], the tissue uptake at 4 h in series [1] (setting [16]) was 0.02 %ID/g; in series [1] (bone, ^111In-labelled fragment ~100 kBq i.v. tail vein, mice without tumours, after 4 h, read-out: Biodistribution of fragment, Bone), 0.06 %ID/g; in series [1] (heart, ^111In-labelled fragment ~100 kBq i.v. tail vein, mice without tumours, after 4 h, read-out: Biodistribution of fragment, Heart), 0.02 %ID/g; in series [1] (setting [17]), 0.15 %ID/g; in series [1] (setting [18]), 2.5 %ID/g; in series [1] (setting [19]), under 4 %ID/g. For the same compound, the tissue uptake at 4 h in series [1] (setting [20]) came to 0.17 %ID/g; in series [1] (setting [21]), 0.04 %ID/g; in series [1] (pancreas, ^111In-labelled fragment ~100 kBq i.v. tail vein, mice without tumours, after 4 h, read-out: Biodistribution of fragment, Pancreas) it was 0.02 %ID/g; in series [1] (setting [22]), 0.07 %ID/g; in series [1] (setting [23]), 0.04 %ID/g. For the same compound, in series [2], the “Biodistribution of fragment, Muscle” value came to 0.00 %iA/g.

Take `NC(=O)[C@H](CCCCNC(=O)CCC(C(=O)O)N1CCN(CC(=O)O)CCN(CC(=O)O)CC1)NC(=O)[C@H](Cc1ccccc1)NC(=O)[C@@H](N)CC(=O)O` (stereo partly drawn) [CL2-F2]: the tissue uptake at 4 h in series [1] (setting [5]) came to 0.01 %ID/g; in series [1] (setting [6]) it was 0.01 %ID/g; in series [1] (setting [7]), 0.01 %ID/g; in series [1] (setting [8]), 0.14 %ID/g; in series [1] (setting [9]) it was 2.11 %ID/g; in series [1] (setting [10]), 0.11 %ID/g. Further, the tissue uptake at 4 h was 0.03 %ID/g in series [1] (setting [11]); 0.01 %ID/g in series [1] (setting [24]); 0.02 %ID/g in series [1] (setting [12]); 0.04 %ID/g in series [1] (setting [13]); 0.03 %ID/g in series [1] (setting [14]); under 4 %ID/g in series [1] (setting [15]).

`NC(=O)[C@H](CCCCNC(=O)CCC(C(=O)O)N1CCN(CC(=O)O)CCN(CC(=O)O)CC1)NC(=O)[C@H](CO)NC(=O)[C@@H]1CCCN1C(=O)[C@@H]1CCCN1C(=O)[C@@H]1CCCN1C(=O)[C@H](CCC(=O)O)NC(=O)[C@@H](N)CC(=O)O` (stereo partly drawn) [CL3-F1] (H-DEPPPSK(NODAGA)-NH2): the tissue uptake at 4 h in series [1] (setting [16]) is 0.01 %ID/g; in series [1] (setting [17]), 0.04 %ID/g; in series [1] (setting [18]), 1.71 %ID/g; in series [1] (setting [19]), under 4 %ID/g; in series [1] (setting [20]), 0.04 %ID/g; in series [1] (setting [21]), 0.02 %ID/g. In addition, the tissue uptake at 4 h in series [1] (setting [22]) and in series [1] (setting [23]) was 0.01 %ID/g each time. Also, in series [2], the “Biodistribution of fragment, Heart” value worked out at 0.00 %iA/g. Further, the “Biodistribution of fragment, Muscle” value in series [2] is recorded as -0.01 %iA/g. Besides, the “Biodistribution of fragment, Pancreas” value in series [2] was 0.00 %iA/g.

As for `NC(=O)[C@H](CCCCNC(=O)CCC(C(=O)O)N1CCN(CC(=O)O)CCN(CC(=O)O)CC1)NC(=O)[C@H](CO)NC(=O)[C@@H]1CCCN1C(=O)[C@@H]1CCCN1C(=O)[C@@H]1CCCN1C(=O)[C@@H](N)CCC(=O)O` (stereo partly drawn) [CL3-F2] (H-EPPPSK(NODAGA)-NH2), the tissue uptake at 4 h in series [1] (setting [5]) turned out to be 0.02 %ID/g; in series [1] (setting [6]) it was 0.21 %ID/g; in series [1] (setting [7]) it was 0.01 %ID/g; in series [1] (setting [8]), 0.1 %ID/g; in series [1] (setting [9]), 2.22 %ID/g; in series [1] (setting [10]), 0.07 %ID/g. The tissue uptake at 4 h in series [1] (setting [11]) was 0.04 %ID/g; in series [1] (setting [24]) it was 0.02 %ID/g; in series [1] (setting [12]), 0.01 %ID/g; in series [1] (setting [13]), 0.03 %ID/g; in series [1] (setting [14]), 0.02 %ID/g; in series [1] (setting [15]) it was under 4 %ID/g.

With “HGEGTFTSDLSKQNleEEEAVRLFIEWLKNGGPSEDEPPPSK(NODAGA)-NH2”, in series [3], the cleaved bond result is listed as “D-E” and the fragment found entry is listed as “IEW –K(natIn-NODAGA)”. Moreover, the cleaved bond result in series [4] is “E-D and D-E”.

Take “HGEGTFTSDLSKQNleEEEAVRLFIEWLKNGGPSSGDYMGWMDFK(NODAGA)-NH2”: the cleaved bond entry was “M-D and G-G” in series [3]; “G-D and M-D” in series [4]. The fragment found entry in series [3] is listed as “IEWL-DFK(natIn-NODAGA)-NH2”.

On to “HGEGTFTSDLSKQNleEEEAVRLFIEWLKNGGPSSGQNleEEEAVK(NODAGA)-NH2”, for which the fragment found entry in series [3] is reported as “IEW-AVK(natIn-NODAGA)-NH2”. Besides, the cleaved bond result in series [4] is “Nle-E and E-E and V-K(^natIn-NODAGA)”.
